Target: CYP102A1 (Priestia megaterium, UniProt P14779, E144G/E268V/F82I/F88V/L189Q/N214S/R48L)
Assay: UV-visible spectral binding titration (type II shift); also turnover by HPLC with NADPH-generating system (Km […])

CYP102A1, sequence (P14779 whole entry R48L/F82I/F88V/E144G/L189Q/N214S/E268V): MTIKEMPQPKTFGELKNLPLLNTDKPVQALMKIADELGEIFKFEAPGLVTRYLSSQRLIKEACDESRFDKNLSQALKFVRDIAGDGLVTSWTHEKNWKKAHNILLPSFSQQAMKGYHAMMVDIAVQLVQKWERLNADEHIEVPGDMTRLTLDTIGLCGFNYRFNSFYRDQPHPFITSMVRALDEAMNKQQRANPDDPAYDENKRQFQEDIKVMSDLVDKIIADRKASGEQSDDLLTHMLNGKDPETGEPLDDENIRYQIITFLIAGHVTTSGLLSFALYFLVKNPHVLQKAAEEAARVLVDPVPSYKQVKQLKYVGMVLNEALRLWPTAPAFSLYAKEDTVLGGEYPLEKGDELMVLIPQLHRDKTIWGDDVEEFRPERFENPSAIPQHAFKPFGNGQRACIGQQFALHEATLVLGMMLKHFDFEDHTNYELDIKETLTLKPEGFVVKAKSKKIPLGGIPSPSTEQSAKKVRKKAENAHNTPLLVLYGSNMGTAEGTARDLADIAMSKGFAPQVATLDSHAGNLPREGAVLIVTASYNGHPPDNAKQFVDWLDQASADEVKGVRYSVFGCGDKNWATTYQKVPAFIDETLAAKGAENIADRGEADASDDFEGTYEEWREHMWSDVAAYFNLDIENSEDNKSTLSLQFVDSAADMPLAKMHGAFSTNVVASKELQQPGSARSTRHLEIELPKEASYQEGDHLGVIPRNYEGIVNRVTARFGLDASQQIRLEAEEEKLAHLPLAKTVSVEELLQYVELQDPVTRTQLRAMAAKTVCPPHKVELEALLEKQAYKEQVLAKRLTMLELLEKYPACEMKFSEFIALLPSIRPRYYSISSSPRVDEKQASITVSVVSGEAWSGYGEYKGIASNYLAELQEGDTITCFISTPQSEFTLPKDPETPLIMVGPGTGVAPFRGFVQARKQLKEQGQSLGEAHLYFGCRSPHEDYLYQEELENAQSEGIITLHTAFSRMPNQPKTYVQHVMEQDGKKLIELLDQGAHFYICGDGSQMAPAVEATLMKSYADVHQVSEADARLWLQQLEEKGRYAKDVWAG

`CC1=CCC(O)(C(C)C)CC1` (racemic) [terpinen-4-ol] was tested, and the Kd was 0.92 ± 0.26 µM.

— publication PMC11016761, “Production of Mono-Hydroxylated Derivatives of Terpinen-4-ol by Bacterial CYP102A1 Enzymes” (Journal of Microbiology and Biotechnology, 2023)
